Experimental data reported in patent publication US11485751B2, “Apramycin derivatives” (WAYNE STATE UNIVERSITY, priority 2017, dated 2022).
In brackets after ≈: the same amount, converted by molar mass. Like-named read-outs stand apart in the source and are kept apart here.

Legend:
[1] = test system: WT clinical isolates; test: MIC broth microdilution, WT; type: cell-based; conditions: read-out: MIC WT, clinical isolates, IMM Univ. Zurich; wild type
In short: (§1)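 MICs obtained by broth microdilution following CLSI M07-A10, tested against clinical isolates from the Institute of Medical Microbiology, Univ. Zurich; values in μg/ml.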

[2] = test system: clinical isolates carrying APH(3′)-I; test: MIC broth microdilution, APH(3′)-I; type: cell-based; conditions: IMM Univ. Zurich
Excerpt: (§2) Minimal inhibitory concentrations (MIC) have been determined by broth microdilution assays (CLSI. Methods for Dilution Antimicrobial Susceptibility Tests for Bacteria That Grow Aerobically; Approved Standard—Tenth Edition. CLSI document M07-A10. Wayne, Pa.: Clinical and Laboratory Standards Institute; 2015.).
(§3) Minimal inhibitory concentrations (MICs, […]) against clinical isolates from Institute of Medical Microbiology, Univ. Zurich, and the IC50 values for bacterial, human mitochondrial and human cytosolic ribosomes are indicated.

[3] = test system: clinical isolates carrying APH(3′)-VI; test: MIC broth microdilution, APH(3′)-VI; type: cell-based; conditions: IMM Univ. Zurich
Excerpt: as §2, §3

[4] = test system: human cytosolic ribosomes; test: in-vitro translation assay, human cytosolic ribosomes; type: biochemical
In short: (§4)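 Each ribosome preparation (bacterial, human chimeric as the mitochondrial model, rabbit reticulocyte as the cytosolic model) drives in-vitro translation with the test compound present. Inhibition of translation gives the IC50.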

[5] = test system: clinical isolates carrying AAC(3)-IV; test: MIC broth microdilution, AAC(3)-IV; type: cell-based; conditions: clinical isolates, IMM Univ. Zurich; AAC(3)-IV; read-out: MIC AAC(3)-IV
In short: as §1

[6] = test system: human mitochondrial ribosomes; test: in-vitro translation assay, human mitochondrial (human chimeric) ribosomes; type: biochemical
In short: as §4

[7] = test system: bacterial ribosomes; test: in-vitro translation assay, bacterial ribosomes; type: biochemical
In short: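 Inhibitory potency was determined as IC50 in in-vitro translation systems based on bacterial ribosomes, human chimeric (mitochondrial-type) ribosomes or rabbit reticulocyte (cytosolic) ribosomes.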

[8] = test system: clinical isolates carrying APH(3′)-III; test: MIC broth microdilution, APH(3′)-III; type: cell-based; conditions: IMM Univ. Zurich
Excerpt: as §2, §3

[9] = test system: clinical isolates carrying APH(3′)-II; test: MIC broth microdilution, APH(3′)-II; type: cell-based; conditions: read-out: MIC APH(3′)-II
Excerpt: as §2, §3

[10] = test system: SZ380, Mycobacterium smegmatis; test: MIC reference strain SZ380; type: cell-based; conditions: Mycolicibacterium smegmatis, reference strain; read-out: MIC SZ380 M. smegmatis
In short: (§5)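 CLSI-conform broth microdilution testing gives the minimal concentration preventing visible growth of these reference strains.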

[11] = test system: AG212, Escherichia coli ATCC25922; test: MIC reference strain AG212; type: cell-based; conditions: Escherichia coli; reference strain ATCC25922; read-out: MIC AG212 E. coli
In short: as §5

[12] = test system: K. pneum. AG269 AAC(3)-II AAC(6′)-I rmtB; test: Activity against G1405-methylated 16S-rRNA, clinical isolate AG269; type: cell-based
Excerpt: as §2

[13] = test system: AG215, Klebsiella pneumonia; test: MIC reference strain AG215; type: cell-based; conditions: Klebsiella pneumoniae, reference strain; read-out: MIC AG215 K. pneumonia
In short: as §5

[14] = test system: E. coli AG153 AAC(3)-II APH(3′)-II rmtB; test: Activity against G1405-methylated 16S-rRNA, clinical isolate AG153; type: cell-based
Excerpt: as §2

[15] = test system: AG038 MRSA; test: Antibacterial activity, clinical isolate AG038; type: cell-based; parameters: unit not given here
In short: (§6)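 Reported as MIC; method was a CLSI-conforming microdilution in broth.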

[16] = test system: Engineered E. coli pH430 WT; test: Activity, engineered E. coli pH430 WT; type: cell-based; conditions: wild type
In short: (§7)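 Read-out is the minimal inhibitory concentration, obtained in broth microdilution run according to CLSI guidelines (M07-A10).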

[17] = test system: AG031 P. aer. APH(3′)-II; test: Antibacterial activity, clinical isolate AG031; type: cell-based; parameters: unit not given here
In short: as §6

[18] = test system: Enterob. AG302 AAC(3)-II AAC(6′)-I rmtC; test: Activity against G1405-methylated 16S-rRNA, clinical isolate AG302; type: cell-based
Excerpt: as §2

[19] = test system: AG225, Acinetobacter baumannii pittii; test: MIC reference strain AG225; type: cell-based; conditions: Acinetobacter baumannii, reference strain; read-out: MIC AG225 A. baumannii
In short: as §5

[20] = test system: Engineered E. coli pH424 armA; test: Activity against G1405-methylated 16S-rRNA, E. coli pH424 armA; type: cell-based
In short: as §7

[21] = test system: AG290, Enterobacter cloacae; test: MIC reference strain AG290; type: cell-based; conditions: Enterobacter cloacae; reference strain; read-out: MIC AG290 E. cloacae
In short: as §5

[22] = test system: A baum. AG227 APH(3′)-I armA; test: Activity against G1405-methylated 16S-rRNA, clinical isolate AG227; type: cell-based
Excerpt: as §2

[23] = test system: AG001 E. coli WT; test: Antibacterial activity, clinical isolate AG001; type: cell-based; parameters: unit not given here
In short: as §6

[24] = test system: AG220, Pseudomonas aeruginosa ATCC27853; test: MIC reference strain AG220; type: cell-based; conditions: Pseudomonas aeruginosa, ATCC27853, reference strain ATCC27853; read-out: MIC AG220 P. aeruginosa
In short: as §5

[25] = test system: AG173 E. coli AAC(3)-IV; test: Antibacterial activity, clinical isolate AG173; type: cell-based
In short: as §6

[26] = test system: ATCC19977 M. abcessus; test: MIC reference strain ATCC19977; type: cell-based; conditions: read-out: MIC ATCC19977 M. abcessus
In short: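 Values are minimal inhibitory concentrations, obtained by serial dilution of compound in broth according to CLSI guidance for aerobes.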

[27] = clinical isolates, IMM Univ. Zurich, APH(3′)-II

`NC[C@@H]1O[C@H](O[C@H]2[C@@H](O)[C@H](O[C@@H]3[C@@H](O)[C@H](N)C[C@H](N)[C@H]3O[C@H]3O[C@H](CO)[C@@H](O)[C@H](O)[C@H]3N)O[C@@H]2CO)[C@H](N)[C@@H](O)[C@@H]1O` [paromomycin, reference compound] gave an MIC [1] of 1 to 2 µg/mL (≈ 1.62 to 3.25 µM), an MIC [2] of over 128 µg/mL and an MIC [3] of over 128 µg/mL. The IC50 [4] was 19 µM, the MIC [5] was 128 µg/mL (≈ 208 µM) and the IC50 [6] was 86 µM. For the same molecule, the IC50 [7] was 0.02 µM, the MIC [8] was over 128 µg/mL and the MIC [9] was over 128 µg/mL.

For `CNC1C(O)C2O[C@H](O[C@@H]3C(N)C[C@@H](N)C(O)[C@H]3O[C@@H]3O[C@H](CNCCN)[C@@H](O)[C@H]3O)C(N)C[C@@H]2O[C@@H]1O[C@H]1OC(CO)[C@@H](N)[C@H](O)C1O` (stereo partly shown) [DC214], the MIC [2] was 2 µg/mL (≈ 2.8 µM), the MIC [3] was 4 µg/mL (≈ 5.6 µM) and the MIC [10] was 0.25 µg/mL. The MIC [11] was 2 µg/mL, the IC50 [4] was 85 µM and the MIC [5] was 8 to 16 µg/mL (≈ 11.2 to 22.4 µM). The “Activity K. pneum. AG269 AAC(3)-II AAC(6′)-I rmtB” value [12] was 2, the MIC [13] was 1 µg/mL and the “Activity E. coli AG153 AAC(3)-II APH(3′)-II rmtB” value [14] was 2. For the same molecule, the “Antibacterial activity AG038 MRSA” value [15] was 4, the IC50 [6] was 178 µM and the “Activity E. coli pH430 WT” value [16] was 4. The IC50 [7] was 0.09 µM, the MIC [8] was 1 µg/mL (≈ 1.4 µM) and the “Antibacterial activity AG031 P. aer. APH(3′)-II” value [17] was 8-16. The “Activity Enterob. AG302 AAC(3)-II AAC(6′)-I rmtC” value [18] was 1-2, the MIC [19] was 8 µg/mL and the “Activity E. coli pH424 armA” value [20] was 2. For the same molecule, the MIC [21] was 1 to 2 µg/mL, the “Activity A baum. AG227 APH(3′)-I armA” value [22] was 4-8 and the “Antibacterial activity AG001 E. coli WT” value [23] was 2. For the same molecule, the MIC [24] was 8 µg/mL, the MIC [9, 27] was 4 µg/mL (≈ 5.6 µM) and the “Antibacterial activity AG173 E. coli AAC(3)-IV” value [25] was 16.

With `CNC1C(O)C2O[C@H](O[C@@H]3C(N)C[C@@H](N)C(O)[C@H]3OC3O[C@H](CN)[C@@H](O)[C@H]3O)C(N)C[C@@H]2O[C@@H]1O[C@H]1OC(CO)[C@@H](N)[C@H](O)C1O` (stereo partly shown) [DC201] the MIC [1] was 8 µg/mL (≈ 11.9 µM), the MIC [2] was 2 to 4 µg/mL (≈ 2.98 to 5.96 µM) and the MIC [3] was 4 µg/mL (≈ 5.96 µM). The MIC [10] was 0.25 µg/mL, the MIC [11] was 4 µg/mL and the IC50 [4] was 81 µM. For the same molecule, the MIC [5] was 16 µg/mL (≈ 23.9 µM), the “Activity K. pneum. AG269 AAC(3)-II AAC(6′)-I rmtB” value [12] was 4 and the MIC [13] was 2 µg/mL. For the same molecule, the “Activity E. coli AG153 AAC(3)-II APH(3′)-II rmtB” value [14] was 8, the “Antibacterial activity AG038 MRSA” value [15] was 2-4 and the IC50 [6] was 113 µM. The “Activity E. coli pH430 WT” value [16] was 8, the IC50 [7] was 0.12 µM and the MIC [8] was 1 µg/mL (≈ 1.49 µM). The MIC [26] was 1 to 2 µg/mL (≈ 1.49 to 2.98 µM), the “Antibacterial activity AG031 P. aer. APH(3′)-II” value [17] was 16 and the “Activity Enterob. AG302 AAC(3)-II AAC(6′)-I rmtC” value [18] was 4. The MIC [19] was 4 to 8 µg/mL, the “Activity E. coli pH424 armA” value [20] was 2 and the MIC [21] was 2 µg/mL. The “Activity A baum. AG227 APH(3′)-I armA” value [22] was 8-16, the “Antibacterial activity AG001 E. coli WT” value [23] was 4 and the MIC [24] was 4 to 8 µg/mL. It also gave an MIC [9, 27] of 4 µg/mL (≈ 5.96 µM).
